# Patent publication US6030960A, “Method of treating hepatitis virus infections” (priority 1998, dated 2000)
# “Also recorded” adds a separate entry of the source. Like-named read-outs stand apart in the source and are kept apart here.
# Key:
# Type in all cases: cell-based
# [1] = test system: Hepatitis B virus; experiment: Effect of alkyl lipid on HBV induction of antigen markers, DNA and RNA in persistently infected human HEP-G2 cell cultures (Table 8); details: for activity at 10 µM: Hepatitis B virus, HepG2, 216 h
# Method: Further analyses were carried out with compound CP-51. Again, the cells were treated for nine days at 37° C. The overlay medium was harvested to measure levels of HBsAg, HBeAg, HBcAg, virion DNA, RI DNA and RNA levels. HBsAg and HBeAg were assayed by EIA (Abbott Laboratories). HBcAg was assayed by a solid phase EIA. HBV RNA was analyzed by Northern blot hybridization using a ^32 P-labelled 3.2 Kb genomic probe. Intracellular HBV RNA and RI HBV DNA was quantitated using a AMBIS beta scanner.
# [2] = test system: Hepatitis B virus; experiment: Anti-hepatitis B virus activity in HEP-G2 cells persistently infected with HBV (Table 2); details: for activity at 10 µM: Hepatitis B virus, HepG2, 216 h
# Outline: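 HBV-persistently infected HepG2 cells were dosed daily with 10 μM compound in 20% FBS medium for 9 days. Medium HBsAg and HBeAg were measured by EIA and virion DNA by slot-blot hybridisation, each relative to untreated controls. EC90 (90% drop in HBV DNA replication intermediates) came from linear regression.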
# [3] = Cytotoxicity in HBV persistently infected human HEP G2 cells, neutral red dye uptake (Table 5); details: human, hep-g2 cells
# Outline: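 HBV-transfected HEP-G2 monolayers in RPMI-1640 were given compound at four serial concentrations in triplicate for nine days at 37 °C, with periodic medium replacement. Toxicity from 0.01% neutral red uptake (A510), as percent of nine untreated control wells on the same plate.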
# [4] = test system: Hepatitis B virus; experiment: Effects of CP-51 on HBV-induced DNA and RNA synthesis (Table 4); details: for mrna remaining at 10 µM / activity at 10 µM / inhibition at 10 µM: Hepatitis B virus
# Method: (§1) HEP-G2 cells persistently infected with HBV were treated daily with fresh D-MEM containing 20% FBS and 10 μM compound. After 9 days incubation and treatment, the overlay medium was harvested to assay the quantity of Hepatitis B virus s antigen (HBsAg) and HBeAg by EIA (Abbott Laboratories). The overlay medium was diluted to levels of antigen in the linear range of the assay. Standard curves using dilutions of positive HBsAg and HBeAg controls were included in each assay. Virion DNA was assayed using the method set forth in Korba and Gerin, Antiviral Res., 19, 5,5-70 (1992), incorporated by reference herein. HBV DNA was extracted from the overlay medium containing virus particles and analyzed by a slot-blot hybridization technique using ^32 P-labelled 3.2 Kb Eco R1 HBV DNA fragment by comparisons to HBV standards present on nitrocellulose filters using an AMBIS beta scanner. EC90 values (90% effective concentration, i.e., drug concentration which induces a 90% decrease in the levels of HBV DNA replication intermediates in treated versus control cells) were calculated by linear regression analysis. The relative levels of HBsAg, HBeAg and virion DNA were calulated as a percentage of the average levels obtained from the untreated controls.
# Experiments were performed to determine the effects of CP-51 on HBV induced DNA and RNA syntheses. HEP-G2 cells persistently infected with HBV were treated daily with fresh D-MEM containing 20% FBS and 10 μM compound. After 9 days incubation and treatment the cells and overlay medium were harvested separately to assay the quantity of nucleic acids. Details of the methodology of the assays are given in Section B above. Extracellular virion DNA in untreated cells ranged from 50 to 150 pg/ml in the overlay medium. Intracellular HBV DNA replication intermediates (RI) in untreated cells ranged from 50 to 100 pg/μg cell DNA. Hybridization analysis results in about 1 pg intracellular HBV DNA/μg cellular DNA to 2-3 genomic copies per cell and 1.0 pg of extracellular HBV DNA/ml overlay medium to […] viral particles/ml. HBV RNA was analyzed by Northern blot hybridization analysis using a ^32 P-labeled 3.2 Kb gel-purified cloned genomic probe. Quantitive analysis of intracellular HBV DNA anc 14BV RNA was performed using an AMBIS beta scanner.
# [5] = test system: Hepatitis B virus; experiment: CP-51 against HBV-induced antigen syntheses in HEP-G2 cells persistently infected with HBV (Table 3); details: for activity at 10 µM / inhibition at 10 µM: Hepatitis B virus; for activity at 10 µM: HepG2, 216 h; for inhibition at 10 µM: HepG2
# Method: as §1
# In contrast, CP-51 inhibited HBeAg and HBcAg syntheses by 76 and 68%, respectively.
# [6] = Cytotoxicity of alkyl lipids, neutral red dye uptake (Table 1); details: human, hep-g2 cells
# Outline: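 HepG2 cells carrying tandem HBV genomes, with a G418-resistance plasmid, were given four serial compound concentrations in triplicate in RPMI-1640 for nine days at 37° C, with periodic medium replacement. Viability was measured by 0.01% neutral red uptake (A510) and expressed as percent of untreated control wells ±SD.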
# [7] = read-out: Relative Level of HBeAg
# [8] = read-out: Relative Level of HBsAg
# [9] = read-out: Relative Level of Virion DNA
# [10] = Trial 1, read-out: % of Control Neutral Red Dye Uptake
# [11] = Trial 3, read-out: % of Control Neutral Red Dye Uptake
# [12] = % of Control Neutral Red Dye Uptake
smiles,measurement,setting,value
"Nc1ccn([C@H]2CC[C@@H](CO)O2)c(=O)n1 [2',3'-dideoxycytidine, 2', 3'-dideoxycytidine, reference compound]",activity at 10 µM,[1]; read-out: Relative Level of HBcAg,102%
same,activity at 10 µM,[1]; [7],95%
same,activity at 10 µM,[1]; [8],96%
same,activity at 10 µM,[1]; read-out: Relative Level of Intracellular HBV-DNA,6%
same,activity at 10 µM,[1]; read-out: Relative Level of RI DNA,46%
same,activity at 10 µM,[1]; read-out: Relative Level of Total RNA,92%
same,activity at 10 µM,[1]; [9],2%
same,activity at 10 µM,[2]; [7],108%
same,activity at 10 µM,[2]; [8],106%
same,activity at 10 µM,[2]; [9],2%
same,"viability at 216 h, 10 µM","[3]; Trial 1, 10 μM, read-out: % of Control Neutral Red Dye Uptake",101 ± 2%
same,"viability at 216 h, 30 µM","[3]; Trial 1, 30 μM, read-out: % of Control Neutral Red Dye Uptake",100 ± 1%
same,"viability at 216 h, 100 µM",[3]; [10],97 ± 2%
same,"viability at 216 h, 300 µM",[3]; [10],34 ± 4%
same,"viability at 216 h, 10 µM","[3]; Trial 2, 10 μM, read-out: % of Control Neutral Red Dye Uptake",101 ± 3%
same,"viability at 216 h, 30 µM","[3]; Trial 2, 30 μM, read-out: % of Control Neutral Red Dye Uptake",102 ± 2%
same,"viability at 216 h, 300 µM","[3]; Trial 2, read-out: % of Control Neutral Red Dye Uptake",40 ± 4%
same,"viability at 216 h, 1000 µM","[3]; Trial 2, 1000 μM, read-out: % of Control Neutral Red Dye Uptake",12 ± 5%
same,"viability at 216 h, 10 µM","[3]; Trial 3, 10 μM, read-out: % of Control Neutral Red Dye Uptake",100 ± 1%
same,"viability at 216 h, 30 µM","[3]; Trial 3, 30 μM, read-out: % of Control Neutral Red Dye Uptake",102 ± 1%
same,"viability at 216 h, 100 µM",[3]; [11],99 ± 2%
same,"viability at 216 h, 300 µM",[3]; [11],35 ± 2%
same,effect on HBV-induced DNA and RNA syntheses,"[4]; 10 μM, in words",inhibited HBV-induced DNA synthesis but not RNA syntheses
same,mrna remaining at 10 µM,"[4]; HepG2, 216 h, read-out: Relative Level of 2.1 Kb RNA",105%
same,activity at 10 µM,"[4]; HepG2, 216 h, read-out: Relative Level of 3.2 Kb DNA",46%
same,mrna remaining at 10 µM,"[4]; HepG2, 216 h, read-out: Relative Level of 3.6 Kb RNA",92%
same,activity at 10 µM,"[4]; HepG2, 216 h, read-out: Relative Level of HBV RI",6%
same,mrna remaining at 10 µM,"[4]; HepG2, 216 h, read-out: Relative Level of Total RNA",92%
same,activity at 10 µM,"[4]; HepG2, 216 h, read-out: Relative Level of Virion DNA",2%
same,inhibitory activity against HBV-induced antigen syntheses,"[5]; 10 μM, in words",no inhibitory activity
same,activity at 10 µM,[5]; read-out: Relative Levels of HBcAg,102%
same,activity at 10 µM,[5]; read-out: Relative Levels of HBeAg,95%
same,activity at 10 µM,[5]; read-out: Relative Levels of HBsAg,96%
same,"viability at 216 h, 3 µM",[6],100 ± 1%
same,"viability at 216 h, 10 µM",[6],102 ± 1%
same,"viability at 216 h, 30 µM",[6],99 ± 2%
same,"viability at 216 h, 100 µM",[6],35 ± 2%
"CCCCCCCCCCCCCCCCCC(=O)NCC(COP(=O)([O-])OCC[N+](C)(C)C)OCC (racemic) [CP-51, rac-3-octadecanamido-2-ethyoxy-1-propylphosphocholine]",activity at 10 µM,"[1]; 10 μM, nine days, untreated controls 100, read-out: Relative Level of HBcAg",32%
same,activity at 10 µM,"[1]; 10 μM, nine days, untreated controls 100, read-out: Relative Level of HBeAg",24%
same,activity at 10 µM,"[1]; 10 μM, nine days, untreated controls 100, read-out: Relative Level of HBsAg",88%
same,activity at 10 µM,"[1]; 10 μM, nine days, untreated controls 100, read-out: Relative Level of Intracellular HBV-DNA",12%
same,activity at 10 µM,"[1]; 10 μM, nine days, untreated controls 100, read-out: Relative Level of RI DNA",42%
same,activity at 10 µM,"[1]; 10 μM, nine days, untreated controls 100, read-out: Relative Level of Total RNA",84%
same,activity at 10 µM,"[1]; 10 μM, nine days, untreated controls 100, read-out: Relative Level of Virion DNA",2%
same,inhibition of Hepatitis B core antigen (HBcAg) levels,[1]; in words,significantly inhibited
same,level or size of HBV induced RNA transcripts of HBsAg,[1]; in words,did not significantly alter
same,activity against HBV-induced virion DNA and HBeAg syntheses,"[2]; 10 μM, in words",potent inhibitory activity
same,activity at 10 µM,"[2]; 10 μM, 9 days treatment, read-out: Relative Level of HBeAg",28%
same,activity at 10 µM,"[2]; 10 μM, 9 days treatment, read-out: Relative Level of HBsAg",99%
same,activity at 10 µM,"[2]; 10 μM, 9 days treatment, read-out: Relative Level of Virion DNA",2%
same,anti-HBV activity,[2]; in words,most potent anti-HBV compound; also recorded: most potent anti-HBV activity
same,"viability at 216 h, 3 µM",[3]; [12],98 ± 3%
same,"viability at 216 h, 10 µM",[3]; [12],102 ± 1%
same,"viability at 216 h, 30 µM",[3]; [12],100 ± 3%
same,effect on HBV-induced RNA syntheses,"[4]; 10 μM, in words",no significant effects
same,mrna remaining at 10 µM,"[4]; HepG2, 216 h, 10 μM, 9 days treatment, read-out: Relative Level of 2.1 Kb RNA",112%
same,activity at 10 µM,"[4]; HepG2, 216 h, 10 μM, 9 days treatment, read-out: Relative Level of 3.2 Kb DNA",42%
same,mrna remaining at 10 µM,"[4]; HepG2, 216 h, 10 μM, 9 days treatment, read-out: Relative Level of 3.6 Kb RNA",84%
same,mrna remaining at 10 µM,"[4]; HepG2, 216 h, 10 μM, 9 days treatment, read-out: Relative Level of Total RNA",112%
same,activity at 10 µM,"[4]; HepG2, 216 h, 10 μM, 9 days treatment, read-out: Relative Level of Virion DNA",2%
same,activity at 10 µM,"[4]; HepG2, 216 h, 10 μM, 9 days treatment, replication intermediates, read-out: Relative Level of HBV RI",12%
same,inhibition at 10 µM,"[4]; HepG2, 216 h, 10 μM, read-out: inhibition of 3.2 Kb DNA synthesis",58%
same,inhibition at 10 µM,"[4]; 10 μM, read-out: inhibition of replication intermediates (RI) DNA synthesis",88%
same,inhibition at 10 µM,"[4]; 10 μM, read-out: inhibition of virion DNA synthesis",98%
same,selectivity for HBV-induced antigens and nucleic acids,[4]; in words,"selective for inhibiting HBV-induced HBcAg, HBeAg, virion DNA and HBV RI syntheses but not HBsAg or RNA syntheses"
same,inhibitory activity against HBsAg synthesis,"[5]; 10 μM, in words",no inhibitory activity
same,activity at 10 µM,"[5]; 10 μM, 9 days treatment, read-out: Relative Levels of HBcAg",32%
same,activity at 10 µM,"[5]; 10 μM, 9 days treatment, read-out: Relative Levels of HBeAg",24%
same,activity at 10 µM,"[5]; 10 μM, 9 days treatment, read-out: Relative Levels of HBsAg",88%
same,inhibition at 10 µM,"[5]; 10 μM, read-out: inhibition of HBcAg synthesis",68%
same,inhibition at 10 µM,"[5]; 10 μM, read-out: inhibition of HBeAg synthesis",76%
same,inhibitory activity against HBeAg and HBcAg (core and e antigen) syntheses,[5]; in words,selective inhibitory activity; also recorded: inhibit the production of the HBV antigens core antigen and e antigen
same,"cytotoxicity at 216 h, 30 µM",[6],4%
same,"cytotoxicity at 216 h, 100 µM",[6],29%
same,"viability at 216 h, 3 µM",[6],101 ± 1%
same,"viability at 216 h, 10 µM",[6],100 ± 4%
same,"viability at 216 h, 30 µM",[6],96 ± 2%
same,"viability at 216 h, 100 µM",[6],71 ± 1%
